Experimental data: patent US20160346249A1 (priority 2012, published 2016)
“And” between values parts separate entries of the source, which are not always exact repeats. Identical values can stand only once. Like-named read-outs stand apart in the source and are kept apart here.

How the values were obtained:
[1] = mouse, in vivo; for AUC0-24: po
[2] = In vitro metabolism in human hepatocytes; settings: male, human, hepatocytes, 4 h, 87 μM
Method: Cryopreserved human hepatocytes (male) that are prepared by XenoTech, LLC (Lenexa, Kans.), are thawed on the day of use and resuspended in Waymouth's incubation media. The enzymatic activity of hepatocytes is monitored using 7-ethoxycoumarin and 7-hydroxycoumarin as substrates. […] The incubations are carried out for 4 hours with 1×10^6 viable cells/ml. […] At 0 and 4 hour, cell suspensions are extracted using two volumes of ice cold methanol. After centrifugation, the extracts are stored at −20° C. until further sample processing. The solvent in the samples are dried under a stream of nitrogen, and resuspended in methanol:water (1:1) before analysis.
The extracts of the 4 hour incubation mixture are analyzed by liquid chromatography/electrospray ionization-mass spectrometry (LC/ESI-MS) in the positive and negative ion modes to screen for possible metabolites. HPLC Methods 1 and 2 are used to find potential metabolites, and the HPLC and mass spectrometry systems are described in Table 56. The same instrumentation and methods in HPLC Method 1 are used in HPLC Method 2 with the exception that the mobile phases and gradient are changed to 0.4% HCOOH in H2O for mobile A and CH3OH for mobile phase B. The mass spectrometer is LCQ™ Ion Trap Mass Spectrometer and is in either the positive or negative electrospray mode with the ion spray set at 4.5 kV. The capillary temperature is 250° C., the nitrogen sheath gas flow rate is ˜80 unit, the auxiliary nitrogen gas flow rate is 20 unit, and the collision gas is helium.

[3] = Single dose 300 mg / 450 mg pharmacokinetic, safety and tolerability study in healthy male and female subjects; settings: for renal clearance, individual subjects: listed as DOV 21,947; for CL renal: urine and plasma, renal clearance, Mean (SD)
From the text: Fourteen subjects, divided equally between males and females, were enrolled in the study and randomized between test article (5/sex) and placebo (2/sex). […] All subjects met the inclusion and exclusion criteria for entry into the study as detailed in the protocol and signed an informed consent form.
The subjects were confined to the clinical study site from Day −1 to the morning of Day 2, when they underwent a brief physical examination, clinical laboratory tests, and a physician visit before they were discharged. On Day 7, they reported to the clinical site again and were confined to the site until the morning of Day 9. At that time, they underwent a complete physical examination, clinical laboratory tests, and a physician's visit before they were discharged from the study. All subjects were fasted overnight on Days −1 and 7 from approximately 22:00 to approximately 4 hours post-dose on Days 1 and 8, at which time they received a standard lunch.
Subjects that received the placebo (2/sex) ingested six identical looking capsules with no drug. […] Capsules on both days were ingested with 240 mL water. […] Samples were collected into lithium heparin-containing Vacutainers® and centrifuged at approximately 3000 rpm to obtain the plasma fraction. The plasma was split into two polypropylene tubes and stored at −20° C. […] The urine volumes were recorded and an aliquot was stored for drug concentration measurements.
Validated LC/MS/MS assays were used for analyses; the assay range for both analytes in plasma and urine were 5.00 to 2000 ng/mL.
Plasma concentration-time data for each subject were analyzed with WinNonlin, version 4.1 (Pharsight Corporation, Mountain View, Calif.) using a non-compartmental model. […] Plasma concentrations listed as not detected (ND) or below the lower limit of quantitation (LLOQ) were set to zero. The values of Cmax and Tmax were the observed values for each subject. AUC0-t was determined using the linear trapezoidal rule whenever the concentration data were increasing and the logarithmic trapezoidal rule any time that the concentration data were decreasing. The apparent λz was calculated as the negative slope of the log-linear terminal portion of the blood concentration-time curve using linear regression. To allow for accurate calculation of λz, a minimum of three observations, selected by WinNonlin, was used. The t½ was calculated as ln 2/λz. AUC0-t was extrapolated to infinity (AUC0-∞) as follows: AUC0-∞=AUC0-t+Clast/λz where Clast is the last quantifiable concentration. The apparent oral clearance (CL/F) was calculated as Dose/AUC0-∞. The apparent oral volume of distribution (Vz/F) was calculated as Dose/λz×AUC0-∞. The mean residence time from time zero to infinity (MRT0-∞) was calculated as AUMC0-∞/AUC0-∞.

[4] = both, human, plasma, oral, 300 mg
[5] = both, human, plasma, oral, 450 mg
[6] = both, human, plasma, po, 300 mg
[7] = both, human, plasma, po, 450 mg
[8] = female, human, plasma, po, 300 mg

Clc1ccc([C@]23CNC[C@H]2C3)cc1Cl [amitifadine, (+)-1-(3,4-dichlorophenyl)-3-azabicyclo[3.1.0]hexane]
AUC0-24 ([1]; female, Crl:CD-1(ICR) BR, 10 mg/kg/day): 2086 ng·h/mL
AUC0-24 ([1]; female, Crl:CD-1(ICR) BR, 30 mg/kg/day): 6474 ng·h/mL
AUC0-24 ([1]; female, Crl:CD-1(ICR) BR, 100 mg/kg/day): 26436 ng·h/mL
twitching (animals affected) ([1]; male, Crl:CD-1(ICR) BR, 150 mg/kg/day, 0 study day): 3/10
AUC0-24 ([1]; male, Crl:CD-1(ICR) BR, 10 mg/kg/day): 1907 ng·h/mL
AUC0-24 ([1]; male, Crl:CD-1(ICR) BR, 30 mg/kg/day): 7250 ng·h/mL
AUC0-24 ([1]; male, Crl:CD-1(ICR) BR, 100 mg/kg/day): 40306 ng·h/mL
AUC0-24 ([1]; male, Crl:CD-1(ICR) BR, 150 mg/kg/day): 40248 ng·h/mL
absolute liver weight higher ([1]; 150 mg/kg/day): 22%
absolute lymphocyte counts lower ([1]; 150 mg/kg/day): 54%
percent neutrophil counts higher ([1]; 150 mg/kg/day): 183%
percentage lymphocyte counts lower ([1]; 150 mg/kg/day): 31%
remains unchanged after 4 hour incubation [2]: 82.4%
ingested dose in urine (0-24 hr) ([3]; 300 mg): 0.4%
renal clearance, individual subjects ([3]; 300 mg single oral dose): 40.6 mL/h and 62.1 mL/h and 32.1 mL/h and 47.7 mL/h and 39.2 mL/h and 66.6 mL/h and 91.7 mL/h and 47.3 mL/h and 76.4 mL/h
ingested dose in urine (0-24 hr) ([3]; 450 mg): 0.3%
renal clearance, individual subjects ([3]; 450 mg single oral dose): 42.2 mL/h and 31.9 mL/h and 25.4 mL/h and 22.3 mL/h and 40.1 mL/h and 34.1 mL/h and 32.1 mL/h and 79.2 mL/h and 33.7 mL/h and 47.3 mL/h
oral clearance ([3]; 300 and 450 mg): 13.2 to 13.6 L/h
Cmax [3, 4]: 3370 ng/mL
Tmax [3, 4]: 2.15 h
Cmax [3, 5]: 5110 ng/mL
MRT [3, 5]: 6.3 to 6.4 h
Tmax [3, 5]: 2.43 h
half-life ([3]; both, human, plasma, oral, 450 mg, elimination half-life, 300 and 450 mg): ~240 min
AUC(0-inf) [3, 6]: 19700 ng·h/mL
AUC(0-t) [3, 6]: 19400 ng·h/mL
Cmax [3, 6]: 3370 ng/mL
MRT inf [3, 6]: 6.29 h
Tmax [3, 6]: 2.15 h
half-life ([3]; both, human, plasma, po, 300 mg, t½ (Harmonic mean), single oral 300 mg DOV 21,947 HCl IR, N = 10): 252 min
half-life ([3]; both, human, plasma, po, 300 mg, t½, single oral 300 mg DOV 21,947 HCl IR, arithmetic mean, N = 10): 254 min
AUC(0-inf) [3, 7]: 30500 ng·h/mL
AUC(0-t) [3, 7]: 30000 ng·h/mL
Cmax [3, 7]: 5110 ng/mL
MRT inf [3, 7]: 6.39 h
Tmax [3, 7]: 2.43 h
half-life ([3]; both, human, plasma, po, 450 mg, t½ (Harmonic mean), single oral 450 mg DOV 21,947 HCl IR, N = 10): 226 min
half-life ([3]; both, human, plasma, po, 450 mg, t½, single oral 450 mg DOV 21,947 HCl IR, arithmetic mean, N = 10): 229 min
CL renal ([3]; both, human, po, 300 mg, 300 mg single oral dose): 0.943 mL/min
CL renal ([3]; both, human, po, 450 mg, 450 mg single oral dose): 0.647 mL/min
AUC(0-inf) [3, 8]: 20500 ng·h/mL
AUC(0-t) [3, 8]: 20100 ng·h/mL
Cmax [3, 8]: 3260 ng/mL
MRT inf [3, 8]: 6.51 h
Tmax [3, 8]: 2.7 h
half-life ([3]; female, human, plasma, po, 300 mg, t½ (Harmonic mean), single oral 300 mg DOV 21,947 HCl IR, N = 5): 246 min
half-life ([3]; female, human, plasma, po, 300 mg, t½, single oral 300 mg DOV 21,947 HCl IR, N = 5, arithmetic mean): 248 min
